The results in this text go back to US20210198284A1, “GOLD COMPOSITIONS AND METHODS OF USE THEREOF” (THE UNIVERSITY OF MASSACHUSETTS, priority 2018, published 2021).

What all share (type): cell-based
One test concerns E. coli ATCC 25922. As to the kind of experiment: Antibacterial assay, MIC/MBC by broth microdilution (CLSI). The settings on record: for MIC: repeated twice, a/b = both values. Summed up: (§1)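 CLSI broth microdilution in cation-adjusted Mueller Hinton broth, log-phase inoculum diluted to 7.5×10^5 CFU/mL before 1:1 mixing with two-fold compound dilutions, triplicates, 18 h at 37 °C static. MIC: >90% inhibition by OD600; MBC: lowest concentration giving no colonies after 5 μL spotted on agar, 18 h, 37 °C.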
(In general: Broth dilution looks for growth in wells or tubes with falling amounts of substance.)

For another test, the system named is E. cloacae NCTC 13405. Described as above. The following applies: for MBC (in brackets) / MIC: E. cloacae NCTC 13405; for MIC: repeated twice, a/b = both values. Summed up:
as §1

The next test concerns P. aeruginosa NCTC 13437. The test is described as above. The following applies: for MBC (in brackets) / MIC: P. aeruginosa NCTC 13437; for MIC: repeated twice, a/b = both values. Summed up: as §1
Another test concerns S. aureus JE2 (USA300). The description is as above. The settings on record: for MBC (in brackets) / MIC: S. aureus JE2 (USA300); for MIC: repeated twice, a/b = both values. Summed up: as §1
Test [1] concerns K. pneumoniae ATCC 700603. The test is described as above. Summed up:
as §1

The next test concerns E. faecalis ATCC 700221. The description is as above. The settings on record: for MIC: repeated twice, a/b = both values. Summed up: as §1
The test system of the next test is A. baumannii NCTC 13420. The description is as above. Summed up: as §1
Another test concerns C. neoformans KN99. As to the kind of experiment: Antifungal MIC.
A further test deals with E. faecalis. As to the kind of experiment: Antimicrobial screening of auranofin analogs. From the text:
(§2) Auranofin analogs were synthesized by varying the structure of the thio-sugar ligand and the phosphine ligands. These analogs were screened for antimicrobial activity against 5 key ESKAPE pathogens and E. coli. (Table 3). The “ESKAPE” pathogens consist of six pathogens with growing multidrug resistant virulence: Enterococcus faecium (gram-positive), Staphylococcus aureus (gram-positive), Klebsiella pneumoniae (gram-negative), Acinetobacter (gram-negative), Pseudomonas aeruginosa (gram-negative) and Eterobacter (gram-negative). According to the data from the Centers for Disease Control and Prevention (CDC), two-thirds of all clinical infections are caused by these six ESKAPE bacteria.

For a further test, the system named is K. pneumoniae. Nature of the test: Antimicrobial screening of auranofin analogs.
Description: as §2

The test system of the next test is E. cloacae. As to the kind of experiment: Antimicrobial screening of auranofin analogs.
Description: as §2

The test system of the next test is P. aeruginosa. As to the kind of experiment: Antimicrobial screening of auranofin analogs.
Description: as §2

In a further test the test system is S. aureus. As to the kind of experiment: Antimicrobial screening of auranofin analogs.
Description: as §2

A further test deals with MRSA. As to the kind of experiment: Antimicrobial screening of auranofin analogs.
Description: as §2

Test [2] concerns C. neoformans ATCC 208821. As to the kind of experiment: Antifungal MIC. The settings on record: for MIC: C. neoformans ATCC 208821.
The next test relates to C. albicans ATCC 90028. Nature of the test: Antifungal MIC.
The subject of another test is Gram-negative strains. Nature of the test: In vitro antimicrobial activities, Gram-negative strains taken together. The following applies: Gram-negative strains tested. The protocol: Antibacterial assay. The minimum inhibitory concentrations (MICs) and the minimum bactericidal concentrations (MBCs) were determined by the broth microdilution method as described in the CLSI (The Clinical & Laboratory Standards Institute) guidelines (Performance standards for antimicrobial susceptibility testing: Clinical and Laboratory Standards Institute (CLSI), Twenty-Fifth informational supplement. Document M100-S25: […]; Vol. 35). All bacterial strains were cultured in cation-adjusted Muller Hinton broth (CAMHB) up to log-phase and then diluted to give a concentration of 7.5×10^5 CFU/mL. The gold complexes were dissolved in DMSO or water as stock solutions, which were then serially diluted two-fold in a 96-well plate. Aliquots (100 μL) of the dilutions were mixed with equal volumes of the bacterium suspension in a 96 well plate (in triplicates). The plates were incubated at 37° C. for 18 h without shaking. Negative and positive controls were included in the same well plate with wells having the culture medium only and bacteria solution only, respectively. The sample concentration that gave inhibition values above 90% were determined as MICs as calculated from absorbance values at 600 nm (OD600) obtained using a Tecan SPARK IOM plate reader. […] The sample concentration that gave no colony formed on agar plates were determined as MBCs. […]

The mark [3] stands for this setting: K. pneumoniae ATCC 700603, repeated twice, a/b = both values.
[4] abbreviates: A. baumannii NCTC 13420, repeated twice, a/b = both values.

For “(2-Mercaptoethanolato)(trimethylphosphine) gold (I) [Compound 27]”, the “MBC (in brackets)” value was 11 μM/mL against E. coli ATCC 25922; 3 (3) μM/mL in the test on E. cloacae NCTC 13405; 91 μM/mL in the test on P. aeruginosa NCTC 13437; 0.7 μM/mL against S. aureus JE2 (USA300); 23 μM/mL in [1] (K. pneumoniae ATCC 700603); 0.3 (0.3) μM/mL in the test with E. faecalis ATCC 700221. Moreover, in the test with A. baumannii NCTC 13420 (A. baumannii NCTC 13420), the “MBC (in brackets)” value is 23 μM/mL. The MIC was 1/6 in the test with E. coli ATCC 25922; 3 (3) μM/mL against E. cloacae NCTC 13405; 23/91 against P. aeruginosa NCTC 13437; 0.3 μM/mL against S. aureus JE2 (USA300); 11 µg/mL in [1] (K. pneumoniae); 11 μM/mL in [1] (setting [3]). Also, the results for the MIC in the test on E. faecalis ATCC 700221, against A. baumannii NCTC 13420 (A. baumannii) and against A. baumannii NCTC 13420 (setting [4]) were 0.3 (0.3) μM/mL, 5.7 µM and 6/3, respectively. Further, in the test with E. cloacae NCTC 13405 (E. cloacae), the MIC/MBC is 2.9 µM. The “MIC/MBC, fold lower than / improvement over auranofin” value in the test with E. cloacae NCTC 13405 (E. cloacae) was determined as 65 fold. For the same substance, the activity in words result in the test with P. aeruginosa NCTC 13437 (P. aeruginosa) is reported as “showed activity”. Also, the “MIC or MIC/MBC, fold lower than auranofin” value in [1] (K. pneumoniae) turned out to be 34 fold.
On to “(2-Aminobenzenethiolato)(triethylphosphine) gold(I) [Compound 19]”, for which the MIC in the test with C. neoformans KN99 is 2 µg/mL; with E. coli ATCC 25922, 36 (36) μM/mL; against E. cloacae NCTC 13405, 18/73; against P. aeruginosa NCTC 13437, 291 (291) μM/mL; in the test on S. aureus JE2 (USA300) it was 0.009 μM/mL; in test [1] (setting [3]), 146 (146) μM/mL. For the same substance, the figures for the MIC against E. faecalis ATCC 700221 and with A. baumannii NCTC 13420 (setting [4]) were 0.02 μM/mL and 18/36, respectively. For the same substance, the “MBC (in brackets)” value is recorded as 36 (36) μM/mL against E. coli ATCC 25922; “(36/73)” against E. cloacae NCTC 13405; 291 (291) μM/mL in the test with P. aeruginosa NCTC 13437; “(0.6) μM/mL” against S. aureus JE2 (USA300); 146 (146) μM/mL in test [1] (K. pneumoniae ATCC 700603); “(0.1) μM/mL” with E. faecalis ATCC 700221. In addition, the “MBC (in brackets)” value against A. baumannii NCTC 13420 (A. baumannii NCTC 13420) is given as 18 μM/mL. Moreover, the “MIC values in words” value in the test with S. aureus JE2 (USA300) (S. aureus) was “nanomolar range”.
Consider “(2,3,4,6-Tetra-O-acetyl-1-thio-β-D-glucopyranosato) (triethylphosphine) gold(I) [Compound 1, reference compound]”, for which the “bactericidal activity at the lowest tested concentration” value in the test with E. faecalis was not above 0.5 µg/mL; in the test with S. aureus, not above 0.5 µg/mL; with MRSA it was not above 0.25 µg/mL. In addition, the activity in words result in the test on K. pneumoniae is “lacked significant activity”; with E. cloacae, “lacked significant activity”; in the test on P. aeruginosa, “lacked significant activity”; with Gram-negative strains, “no activity”. Also, the MIC in the test on C. neoformans KN99 is 16 µg/mL; in the test on E. coli ATCC 25922, 24 (24) μM/mL; against E. cloacae NCTC 13405 it was 189 (189) μM/mL; in the test with P. aeruginosa NCTC 13437, 377 (377) μM/mL; against S. aureus JE2 (USA300), 0.04 μM/mL; in [1] (setting [3]), 377 (377) μM/mL. The results for the MIC (with A. baumannii NCTC 13420 (setting [4]); in test [2]; in the test on C. albicans ATCC 90028) were 47(47) μM/mL, 8 µg/mL and more than 32 µg/mL, respectively. Besides, the “MBC (in brackets)” value was 24 (24) μM/mL in the test on E. coli ATCC 25922; 189 (189) μM/mL against E. cloacae NCTC 13405; 377 (377) μM/mL against P. aeruginosa NCTC 13437; “(0.09) μM/mL” against S. aureus JE2 (USA300); 377 (377) μM/mL in test [1] (K. pneumoniae ATCC 700603); 47(47) μM/mL with A. baumannii NCTC 13420 (A. baumannii NCTC 13420). The MIC/MBC was found to be 377 µM in test [1] (K. pneumoniae) and 47 µM with A. baumannii NCTC 13420 (A. baumannii). Besides, the “antifungal activity in words” value in [2] (C. neoforman, strain not named) was “moderate antifungal activity”.
For the substance “[2,3,4,6-Tetra-O-acetyl-α-D-glucopyranosyl (1→4)-2,3,6-tri-O-acetyl-1-thio-β-D-glucopyranosato](triethylphosphine) gold(I) [Compound 5]”, the “MBC (in brackets)” value with E. coli ATCC 25922 was 17 (17) μM/mL; with E. cloacae NCTC 13405 it was 66 (66) μM/mL; in the test with P. aeruginosa NCTC 13437 it was 132 (132) μM/mL; against S. aureus JE2 (USA300), “(0.06) μM/mL”; with E. faecalis ATCC 700221 it was 6 (0.1) μM/mL; in the test with A. baumannii NCTC 13420 (A. baumannii NCTC 13420), 33 (33) μM/mL. The MIC was 17 (17) μM/mL against E. coli ATCC 25922; 66 (66) μM/mL in the test with E. cloacae NCTC 13405; 132 (132) μM/mL in the test with P. aeruginosa NCTC 13437; 0.008 μM/mL in the test with S. aureus JE2 (USA300); more than 265 μM/mL in test [1] (setting [3]); 33 (33) μM/mL against A. baumannii NCTC 13420 (setting [4]). The MIC (in [2]; against C. albicans ATCC 90028) was more than 32 µg/mL in each case.
